One may read the IC50 as the concentration that inhibits the measured activity by half.

Counter-ions that a name gives are not always drawn.

In patent US10829501B2 (BRISTOL-MYERS SQUIBB COMPANY, priority 2016, dated 2020) one finds IC50 data, which are given here for 30 molecules.

In one assay the target is ROCK2 (Homo sapiens, UniProt O75116). Kind of assay: ROCK2 kinase inhibition assay (LABCHIP 3000 Reader, FITC peptide substrate).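 Further: rho kinase reaction read by separating phosphorylated from unphosphorylated peptide on chip, with inhibition of kinase activity computed per concentration across a dose-response series.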
ROCK2, sequence (O75116 whole entry, species assumed): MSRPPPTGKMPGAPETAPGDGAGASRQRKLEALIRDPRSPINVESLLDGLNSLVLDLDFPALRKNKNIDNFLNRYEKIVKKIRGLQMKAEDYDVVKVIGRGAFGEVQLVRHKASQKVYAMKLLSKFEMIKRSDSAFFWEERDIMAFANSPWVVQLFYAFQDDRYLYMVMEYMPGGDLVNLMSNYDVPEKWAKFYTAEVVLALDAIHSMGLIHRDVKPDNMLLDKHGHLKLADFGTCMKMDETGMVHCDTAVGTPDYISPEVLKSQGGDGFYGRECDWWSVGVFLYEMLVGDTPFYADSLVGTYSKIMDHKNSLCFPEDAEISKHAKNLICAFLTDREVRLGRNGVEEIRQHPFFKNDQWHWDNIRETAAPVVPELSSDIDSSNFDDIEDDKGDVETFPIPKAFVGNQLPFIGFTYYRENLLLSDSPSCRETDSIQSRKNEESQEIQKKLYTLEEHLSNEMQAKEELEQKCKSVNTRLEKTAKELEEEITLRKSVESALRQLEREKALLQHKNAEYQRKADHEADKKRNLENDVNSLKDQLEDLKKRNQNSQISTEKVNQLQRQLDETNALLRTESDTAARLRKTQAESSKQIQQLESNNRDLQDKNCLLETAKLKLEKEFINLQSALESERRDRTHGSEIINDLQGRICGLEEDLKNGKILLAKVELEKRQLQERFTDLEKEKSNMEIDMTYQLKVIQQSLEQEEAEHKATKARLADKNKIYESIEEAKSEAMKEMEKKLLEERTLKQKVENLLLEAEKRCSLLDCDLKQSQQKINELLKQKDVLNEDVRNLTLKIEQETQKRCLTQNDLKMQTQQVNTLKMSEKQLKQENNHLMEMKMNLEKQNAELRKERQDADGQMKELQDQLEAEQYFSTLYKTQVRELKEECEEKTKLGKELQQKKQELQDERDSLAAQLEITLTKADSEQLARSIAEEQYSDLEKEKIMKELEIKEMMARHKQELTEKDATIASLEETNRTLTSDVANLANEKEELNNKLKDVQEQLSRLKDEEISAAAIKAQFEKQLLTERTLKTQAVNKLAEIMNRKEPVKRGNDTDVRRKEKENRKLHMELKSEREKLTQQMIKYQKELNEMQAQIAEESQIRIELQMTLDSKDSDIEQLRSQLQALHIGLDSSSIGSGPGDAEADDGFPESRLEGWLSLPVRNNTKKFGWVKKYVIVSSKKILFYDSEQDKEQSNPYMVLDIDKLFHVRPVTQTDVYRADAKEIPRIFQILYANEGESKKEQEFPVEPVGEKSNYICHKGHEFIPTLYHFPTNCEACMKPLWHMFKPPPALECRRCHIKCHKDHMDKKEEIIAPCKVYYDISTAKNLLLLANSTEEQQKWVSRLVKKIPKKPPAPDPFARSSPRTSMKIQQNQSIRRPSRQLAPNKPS
Details: not given
`[2H]C([2H])([2H])n1nc(C(=O)N[C@H]2CC3(C2)C[C@H](Oc2ncccc2C(N)=O)C3)c2ccc(F)cc21` (stereo partly drawn) [Example 174, 6-fluoro-1-(^2H3)methyl-N-[(aR)-6-[(3-carbamoylpyridin-2-yl)oxy]spiro[3.3]heptan-2-yl]-1H-indazole-3-carboxamide, trifluoroacetate] yielded an IC50 of 5 to 50 nM.
The molecule `[H][C@]1(Oc2ncccc2C(N)=O)C[C@@]2(C[C@H](NC(=O)c3cnc4c(C5CC5)c(OCC(C)(C)F)ccn34)C2)C1` (stereo partly drawn) [Example 47, N-((aR)-6-((3-carbamoylpyridin-2-yl)oxy)spiro[3.3]heptan-2-yl)-8-cyclopropyl-7-(2-fluoro-2-methylpropoxy)imidazo[1,2-a]pyridine-3-carboxamide] returned an IC50 of 5 to 50 nM.
In turn, `CS(=O)(=O)c1cccc(C(=O)N[C@H]2CC3(C2)C[C@H](Oc2ncccc2C(N)=O)C3)c1` (stereo partly drawn) [Example 109, 2-((aR)-6-(3-(methylsulfonyl)benzamido)spiro[3.3]heptan2-- yl)oxy)nicotinamide, trifluoroacetate] displayed a concentration for half-maximal inhibition (IC50) of 50 to 250 nM.
`NC(=O)c1ccccc1OC1CC2(CC(NC(=O)c3cnn4c(C5CC5)c(OC5CCS(=O)(=O)CC5)ccc34)C2)C1` [Example 35, N-[(aR)-6-(2-carbamoylphenoxy)spiro [3.3]heptan-2-yl]-7-cyclopropyl-6-[(1,1-dioxo-1λ^6-thian-4-yl)oxy]pyrazolo[1,5-a] pyridine-3-carboxamide] registered an IC50 of less than 5 nM.
As to `NC(=O)c1cccnc1O[C@H]1CC2(C[C@H](NC(=O)c3cnc4ccc(F)cn34)C2)C1` (stereo partly drawn) [Example 327, N-((aR)-6-((3-carbamoylpyridin-2-yl)oxy)spiro[3.3]heptan-2-yl)-6-fluoroimidazo[1,2-a]pyridine-3-carboxamide], the IC50 was in the range of 50 to 250 nM.
Same read-out and setting: the result for `COCCOCCOc1ccc2c(C(=O)N[C@H]3CC4(C3)C[C@H](Oc3ncccc3C(N)=O)C4)cnn2c1` (stereo partly drawn) [Example 121, N-((aR)-6-((3-carbamoylpyridin-2-yl)oxy)spiro[3.3]heptan-2-yl)-6-(2-(2-methoxyethoxy)ethoxy)pyrazolo [1,5-a]pyridine-3-carboxamide, trifluoroacetate] reads 5 to 50 nM; that for `NC(=O)c1cccnc1O[C@H]1CC2(C[C@H](NC(=O)c3cnc4cc(N5CCC(F)(F)C5)ccn34)C2)C1` (stereo partly drawn) [Example 323, N-((aR)-6-((3-carbamoylpyridin-2-yl)oxy)spiro[3.3]heptan-2-yl)-7-(3,3-difluoropyrrolidin-1-yl)imidazo[1,2-a]pyridine-3-carboxamide], less than 5 nM; that for `Cn1ncc2cc(C(=O)N[C@H]3CC4(C3)C[C@H](Oc3ncccc3C(N)=O)C4)ccc21` (stereo partly drawn) [Example 68, N-((aR)-6-((3-carbamoylpyridin-2-yl)oxy)spiro[3.3]heptan-2-yl)-1-methyl-1H-indazole-5-carboxamide, trifluoroacetae], 50 to 250 nM.
`[H][C@]1(Oc2ncccc2C(N)=O)C[C@@]2(C[C@H](NC(=O)c3cc(C#N)cc(-c4nc5c(s4)CNCC5)c3)C2)C1` (stereo partly drawn) [Example 199, 2-(((aR)-6-(3-cyano-5-(4,5,6,7-tetrahydrothiazolo[5,4-c]pyridin-2-yl)benzamido)spiro[3.3]heptan-2-yl)oxy)nicotinamide, 2TFA]: the half-inhibitory concentration (IC50) lay within 5 to 50 nM.
`NC(=O)c1cccnc1O[C@H]1CC2(C[C@H](NC(=O)c3ccc(-c4cccc(F)c4)cc3)C2)C1` (stereo partly drawn) [Example 162, 2-(((aR)-6-(3′-fluoro-[1,1′-biphenyl]-4-ylcarboxamido)spiro[3.3]heptan-2-yl)oxy)nicotinamide] yielded a half-inhibitory concentration (IC50) of 5 to 50 nM.
In the case of `CC(C)(O)COc1ccc2c(C(=O)NC3CC4(C3)CC(Oc3cc(-n5ccnc5)ccc3C(N)=O)C4)cnn2c1` (stereo not drawn) [Example 221], the 50% inhibitory concentration (IC50) fell in the range of 50 to 250 nM.
The same measure, in the same setting: for `CS(=O)(=O)CCCOc1ccc2c(C(=O)N[C@H]3CC4(C3)C[C@H](Oc3ncccc3C(N)=O)C4)cnn2c1C1CC1` (stereo partly drawn) [Example 352, N-((aR)-6-((3-carbamoylpyridin-2-yl)oxy)spiro[3.3]heptan-2-yl)-7-cyclopropyl-6-(3-(methylsulfonyl)propoxy)pyrazolo[1,5-a]pyridine-3-carboxamide] the value was 5 to 50 nM; for `CC(C)(O)COc1ccc2c(C(=O)NC3CC4(C3)CC(Oc3ccc(F)cc3C(N)=O)C4)cnn2c1` (stereo not drawn) [Example 270, N-(6-(2-carbamoyl-4-fluorophenoxy)spiro[3.3]heptan-2-yl)-6-(2-hydroxy-2-methylpropoxy)pyrazolo[1,5-a]pyridine-3-carboxamide], 50 to 250 nM; for `COc1cccc(C(N)=O)c1OC1CC2(CC(NC(=O)c3cnn4cc(OCC(C)(C)O)ccc34)C2)C1` (stereo not drawn) [Example 209, N-(6-(2-carbamoyl-6-methoxyphenoxy)spiro[3.3]heptan-2-yl)-6-(2-hydroxy-2-methylpropoxy)pyrazolo[1,5-a]pyridine-3-carboxamide], 250 to 2500 nM.
On the same count and under the same terms, the result for `NC(=O)c1cccnc1OC1CC2(CC(NC(=O)c3cnn(-c4cccc(Cl)c4F)c3)C2)C1` (stereo not drawn) [Example 393] reads 5 to 50 nM.
The molecule `NC(=O)c1cccnc1O[C@H]1CC2(C[C@H](NC(=O)c3cnn4ccccc34)C2)C1` (stereo partly drawn) [Example 311, N-((aR)-6-((3-carbamoylpyridin-2-yl)oxy)spiro[3.3]heptan-2-yl)pyrazolo[1,5-a]pyridine-3-carboxamide] came in with an IC50 of 50 to 250 nM.
`CC(C)(O)COc1ccc2c(C(=O)N[C@H]3CC4(C3)C[C@H](Oc3nnccc3C(N)=O)C4)cnn2c1` (stereo partly drawn) [Example 48, N-((aR)-6-((4-carbamoylpyridazin-3-yl)oxy)spiro[3.3]heptan-2-yl)-6-(2-hydroxy-2-methylpropoxy)pyrazolo[1,5-a]pyridine-3-carboxamide]: the half-inhibitory concentration (IC50) was 50 to 250 nM.
Turning to `NC(=O)c1cccnc1O[C@H]1CC2(C[C@H](NC(=O)c3cnc4c(C5CC5)cccn34)C2)C1` (stereo partly drawn) [Example 170, N-((aR)-6-((3-carbamoylpyridin-2-yl)oxy)spiro[3.3]heptan-2-yl)-8-cyclopropylimidazo[1,2-a]pyridine-3-carboxamide, Trifluoroacetate], the concentration for half-maximal inhibition (IC50) lay in the range of 50 to 250 nM.
On the same count and under the same terms, the result for `NC(=O)c1cccnc1OC1CC2(CC(NC(=O)c3cnc(-c4ccc(S(=O)(=O)C5CC5)cc4)s3)C2)C1` [Example 417, N-((aR)-6-((3-carbainoylpyridin-2-yl)oxy)spiro[3.3]heptan-2-yl)-2-(4-(cyclopropylsulfonyl)phenyl)thiazole-5-carboxamide, TFA] reads 5 to 50 nM.
On the same count and under the same terms, for `CN(C)CCOc1ccc2c(C(=O)N[C@H]3CC4(C3)C[C@H](Oc3ncccc3C(N)=O)C4)cnn2c1` (stereo partly drawn) [Example 80, N-((aR)-6-((3-carbamoylpyridin-2-yl)oxy)spiro[3.3]heptan-2-yl)-6-(2-(dimethylamino)ethoxy) pyrazolo[1,5-a] pyridine-3-carboxamdie, trifluoroacetate] the value was 5 to 50 nM.
The same measure, in the same setting: for `NC(=O)c1cccnc1O[C@H]1CC2(C[C@H](NC(=O)c3cnn4cc(N5CC6(COC6)C5)ccc34)C2)C1` (stereo partly drawn) [Example 349, N-((aR)-6-((3-carbamoylpyridin-2-yl)oxy)spiro[3.3]heptan-2-yl)-6-(2-oxa-6-azaspiro[3.3]heptan-6-yl)pyrazolo[1,5-a]pyridine-3-carboxamide] the value was 5 to 50 nM; for `CC(C)(O)COc1ccc2c(C(=O)NC3CC4(C3)CC(Oc3cc(-c5cccc(O)c5)ccc3C(N)=O)C4)cnn2c1` (stereo not drawn) [Example 240, N-(6-((4-carbamoyl-3′-hydroxy-[1,1′-biphenyl]-3-yl)oxy)spiro[3.3]heptan-2-yl)-6-(2-hydroxy-2-methylpropoxy)pyrazolo[1,5-a]pyridine-3-carboxamide], 5 to 50 nM.
Molecule `NC(=O)c1cccnc1O[C@H]1CC2(C[C@H](NC(=O)c3cnn4c(C5CC5)c(OCC5(O)CC(F)(F)C5)ccc34)C2)C1` (stereo partly drawn) [Example 415, N-((aR)-6-((3-carbamoylpyridin-2-yl)oxy)spiro[3.3]heptan-2-yl)-7-cyclopropyl-6-((3,3-difluoro-1-hydroxycyclobutyl)methoxy)pyrazolo[1,5-a]pyridine-3-carboxamide, TFA] came in with an IC50 of less than 5 nM.
Molecule `NC(=O)c1cccnc1O[C@H]1CC2(C[C@H](NC(=O)c3cnn4cc(CCC(F)(F)F)ccc34)C2)C1` (stereo partly drawn) [Example 118, N-((aR)-6-((3-carbamoylpyridin-2-yl)oxy)spiro[3.3]heptan-2-yl)-6-(3,3,3-trifluoropropyl) pyrazolo[1,5-a[pyridine-3-carboxamide, trifluoroacetate] yielded a half-maximal inhibitory concentration (IC50) of 5 to 50 nM.

Still in this assay, the particulars now being: read-out: ROCK2 Activity (ROCK2 IC50); 5 μM ATP, 1.5 μM peptide substrate, pH 7.5.
As for “N-((aR)- 6-((3- carbamoyl- pyridin-2- yl)oxy)spiro[3.3] heptan-2-yl)- 1-(2- hydroxy-2- methylpropyl)-1H- pyraolo[3,4-b] pyridine-3- carboxamide, trifluoroacetate [Example 94]”, the concentration for half-maximal inhibition (IC50) lay within 5 to 50 nM.
For the molecule `Cn1cncc1-c1cc(C(=O)NC2CC3(C2)CC(Oc2ncccc2C(N)=O)C3)cc(C(F)(F)F)c1` [Example 449, 2-(((aR)-6-(3-(1-methyl-1H-imidazol-5-yl)-5-(trifluoromethyl)benzamido)spiro[3.3]heptan-2-yl)oxy)nicotinamide], the IC50 lay in the range of 5 to 50 nM.
Still for that read-out and setting: the result for `Cn1cc(-c2cc(C(=O)NC3CC4(C3)CC(Oc3ncccc3C(N)=O)C4)cc(C(F)(F)F)c2)cn1` [Example 428, 2-(((aR)-6-(3-(1-methyl-1H-pyrazol-4-yl)-5-(trifluoromethyl)benzamido)spiro[3.3]heptan-2-yl)oxy)nicotinamide] reads less than 5 nM; that for “N-((aR)-6-((3- carbamoylpyridin-2- yl)oxy)spiro [3.3]heptan-2-yl)- 6- methoxypyrazolo[1,5- a]pyridine-3- carboxamide, trifluoroacetate [Example 100]”, 5 to 50 nM; that for `Cc1c(C(=O)NC2CC3(C2)CC(Oc2ncccc2C(N)=O)C3)cnn1-c1ccc(Cl)cc1` [Example 384, N-[(aR)2-({6-[1-(4-chlorophenyl)-5-methyl-1H-pyrazole-4-amido]spiro[3.3]heptan-2-yl}oxy)pyridine-3-carboxamid 1 trifluoroacetic acid salt], 5 to 50 nM.
On the same count and under the same terms, the result for `Cc1nc(C(=O)NC2CC3(C2)CC(Oc2ncccc2C(N)=O)C3)c2ccc(Br)cn12` [Example 457, 6-bromo-N-((aR)-6-((3-carbamoylpyridin-2-yl)oxy)spiro[3.3]heptan-2-yl)-3-methylimidazo[1,5-a]pyridine-1-carboxamide] reads 50 to 250 nM.
